Measurements reported in patent US20260285858A1, “GLP-1 RECEPTOR TARGETING COMPOUNDS AND USES THEREOF” (FORTVITA BIOLOGICS INC., priority 2023, published 2026).

What was measured:
[1] = Pharmacokinetic testing in crab-eating macaques (cynomolgus monkey), IV and PO; assay type: in vivo; details: for pharmacokinetics compared to Orforglipron: comparison in words; for AUC(0-t) at 24 h / C0 / clearance / half-life / Cmax / bioavailability: cynomolgus monkey, plasma; for bioavailability: 2 mg/kg vs IV 0.5 mg/kg
Protocol: Crab-eating macaques were administered the compound of the present invention via intravenous injection and oral gavage, respectively. Plasma samples were collected at various time points. The drug concentration of the test compound in the plasma tissue of the crab-eating macaques was detected using an LC-MS/MS analytical method, and a pharmacokinetic analysis was conducted.
Solvent for intravenous injection dosing formulation: […] (DMSO)+5% polyethylene glycol (PEG)-15 hydroxystearate+90% o physiological saline.
Preparation steps for the intravenous injection dosing solution: Accurately weigh the test compound and add it to the aforementioned solvent for intravenous injection dosing to prepare a solution with a final concentration of 0.25 mg/mL.
Solvent for oral dosing formulation: 5% dimethyl sulfoxide (DMSO)+5% polyethylene glycol (PEG)-15 hydroxystearate+90% physiological saline.
Preparation steps for the oral dosing solution: Accurately weigh the test compound and add it to the aforementioned solvent for oral dosing to prepare a solution or suspension with a final concentration of 0.4 mg/mL.
Intravenous injection(IV): Administered via […].
Oral (PO): Select an appropriately sized gavage needle and syringe, insert the gavage needle into the esophagus from the base of the tongue, until it is close to the cardia of the stomach, then inject the drug formulation and remove the gavage needle. When using disposable plastic gavage needles, use one per group.
Blood is collected via a cephalic vein or other suitable vein, with approximately 1 mL per sample, anticoagulated with K2-EDTA, and placed on ice after collection. After collection, blood samples are kept on ice and centrifuged to separate the plasma within 1 hour (centrifugation conditions: 2200 g, 10 minutes, 2-8° C.). Plasma samples are stored at −80° C. before analysis and the remaining plasma samples after analysis are continued to be stored at −80° C. • 4. Sample Detection Plasma concentration detection: The developed LC-MS/MS method is used to detect the compound in the plasma in this experiment. • 5. Data Analysis A non-compartmental model is used to analyze the blood concentration-time data using Phoenix® WinNonlin® (Version 7.0, Pharsight, Mountain View, CA).

[2] = molecular target: T1, human GLP-1R (Homo sapiens, UniProt P43220); test: cAMP accumulation assay (Hithunter cAMP Assay) in CHO-K1 cells stably expressing human GLP-1R; assay type: cell-based; details: CHO-K1 cells expressing human GLP-1R; in the presence of BSA (1%); 30-minute incubation; relative EC50
T1 construct: expressed in transfected cells; host or cells: CHO-K1
Protocol: CHO-K1 cell line stably expressing human GLP-1R was used to detect the cAMP levels using Hithunter cAMP Assay for small molecules platform according manufacturer's instructions (DiscoverX, Cat #90-0075SM2). […] After a 30-minute incubation at 37° C., the cAMP antibody reagent, working solution (mixing 19-parts of lysis buffer, 5-parts of substrate reagent 1, 1-part of substrate reagent 2, and 25-parts of solution D (enzyme donor-labeled cAMP)), and solution A (enzyme […]) were added and incubated at room temperature in the dark. The resulting competitive assays were measured using Spectramax i3x Multi-Mode Detection system (Molecular Devices, USA). A relative EC50 was derived by nonlinear regression analysis by fitting to a 4-parameter logistic model in GraphPad Prism 9 software.

T1 sequence (P43220 24-463): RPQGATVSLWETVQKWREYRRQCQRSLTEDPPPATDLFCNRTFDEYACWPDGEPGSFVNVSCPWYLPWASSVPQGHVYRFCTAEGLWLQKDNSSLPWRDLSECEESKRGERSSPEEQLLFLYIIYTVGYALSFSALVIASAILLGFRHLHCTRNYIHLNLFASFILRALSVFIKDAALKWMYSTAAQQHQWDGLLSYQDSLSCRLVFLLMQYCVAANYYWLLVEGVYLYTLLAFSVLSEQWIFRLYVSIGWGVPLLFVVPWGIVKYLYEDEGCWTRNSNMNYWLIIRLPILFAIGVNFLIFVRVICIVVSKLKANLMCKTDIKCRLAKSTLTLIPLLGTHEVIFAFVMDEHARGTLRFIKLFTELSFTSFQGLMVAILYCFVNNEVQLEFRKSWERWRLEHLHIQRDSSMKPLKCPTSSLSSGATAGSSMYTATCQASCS

AUC(0-t) at 24 h ([1]; IV, 0.5 mg/kg) [ng·h/mL] | C0 ([1]; IV, 0.5 mg/kg) [ng/mL] | clearance ([1]; IV, 0.5 mg/kg) [mL/min/kg] | half-life ([1]; IV, 0.5 mg/kg) [h] | AUC(0-t) at 24 h ([1]; PO, 2 mg/kg) [ng·h/mL] | Cmax ([1]; PO, 2 mg/kg) [ng/mL] | half-life ([1]; PO, 2 mg/kg) [h] | bioavailability ([1]; PO) [%] | EC50 [2] [nM] | SMILES | pharmacokinetics compared to Orforglipron [1]
7560 | 3810 | 0.9 | 10.3 | 3590 | 236 | 13.6 | 11.9 | – | Cc1cc(-n2nc3c(c2-n2ccn(-c4ccc5c(cnn5C)c4F)c2=O)[C@H](C)N(C(=O)c2cc4cc([C@H]5CCOC(C)(C)C5)ccc4n2[C@@]2(c4noc(=O)[nH]4)[C@@H]4CN(c5ccccn5)C[C@@H]42)CC3)cc(C)c1F [Compound C-22, 3-[(1R,5S,6S)-6-{5-[(4S)-2,2-dimethyloxan-4-yl]-2-[(4S)-3-[3-(4-fluoro-1-methyl-1H-indazol-5-yl)-2-oxo-2,3-dihydro-1H-imidazol-1-yl]-2-(4-fluoro-3,5-dimethylphenyl)-4-methyl-2H,4H,5H,6H,7H-pyrazolo[4,3-c]pyridine-5-carbonyl]-1H-indol-1-yl}-3-(pyridin-2-yl)-3-azabicyclo[3.1.0]hexan-6-yl]-4,5-dihydro-1,2,4-oxadiazol-5-one] | longer half-life, higher exposure, lower clearance rate, and greater bioavailability
– | – | – | – | – | – | – | – | 0.2 | Cc1cc(-n2nc3c(c2-n2ccn(-c4ccc5c(cnn5C)c4F)c2=O)[C@H](C)N(C(=O)c2cc4cc(C5CCOCC5)ccc4n2[C@@]2(c4nnn[nH]4)[C@@H]4CN([C@H]5CC[C@H](O)CC5)C[C@@H]42)CC3)cc(C)c1F (single isomer, unassigned) [Compound C-17] | –
1780 | 1170 | 4.6 | 3.4 | 453 | 37.5 | 6.2 | 6.3 | – | Cc1cc(-n2nc3c(c2-n2ccn(-c4ccc5c(cnn5C)c4F)c2=O)[C@H](C)N(C(=O)c2cc4cc([C@H]5CCOC(C)(C)C5)ccc4n2[C@@]2(c4noc(=O)[nH]4)C[C@@H]2C)CC3)cc(C)c1F [Orforglipron, reference compound] | –
6290 | 6730 | 1.3 | 6.3 | 6160 | 514 | 5.9 | 24.5 | – | Cc1cc(-n2nc3c(c2-n2ccn(-c4ccc5c(cnn5C)c4F)c2=O)[C@H](C)N(C(=O)c2cc4cc([C@H]5CCOC(C)(C)C5)ccc4n2[C@@]2(c4noc(=O)[nH]4)[C@@H]4CN(c5ncccn5)C[C@@H]42)CC3)cc(C)c1F [Compound C-12, 3-[(1R,5S,6S)-6-{5-[(4S)-2,2-dimethyloxan-4-yl]-2-[(4S)-3-[3-(4-fluoro-1-methyl-1H-indazol-5-yl)-2-oxo-2,3-dihydro-1H-imidazol-1-yl]-2-(4-fluoro-3,5-dimethylphenyl)-4-methyl-2H,4H,5H,6H,7H-pyrazolo[4,3-c]pyridine-5-carbonyl]-1H-indol-1-yl}-3-(pyrimidin-2-yl)-3-azabicyclo[3.1.0]hexan-6-yl]-4,5-dihydro-1,2,4-oxadiazol-5-one] | longer half-life, higher exposure, lower clearance rate, and greater bioavailability
– | – | – | – | – | – | – | – | 0.6 | Cc1cc(-n2nc3c(c2-n2ccn(-c4ccc5c(cnn5C)c4F)c2=O)[C@H](C)N(C(=O)c2cc4cc(C5CCOCC5)ccc4n2[C@@]2(c4nnn[nH]4)[C@@H]4CN([C@H]5CC[C@@H](O)CC5)C[C@@H]42)CC3)cc(C)c1F (single isomer, unassigned) [Compound C-18] | –
